{
  "source": "paper PMC8962522",
  "about": "“Direct interaction of TrkA/CD44v3 is essential for NGF-promoted aggressiveness of breast cancer cells” (Journal of Experimental & Clinical Cancer Research : CR, 2022)",
  "tested_on": "TrkA in MDA-MB-231 cells",
  "assay": "Immunofluorescence, membrane TrkA",
  "format": "cell-based",
  "details": "MDA-MB-231, immunofluorescence/confocal, NGF; \"same trend\" = as CD44v3: increased until 15 min and then decreased",
  "from_the_text": "The CD44v3- and CD44v6-containing isoforms expressing respectively exon 8 and 11(Fig. 1A) can interact with growth factor receptors. Using COS-7 cells with low CD44 and TrkA expression (Supplementary Fig. 1A-D), we differentially expressed TrkA and CD44s or a CD44 variant, either CD44v3 or CD44v6 (Fig. 1B, supplementary Fig. 2). […] Additionally, we evaluated the expression of TrkA and CD44v3 at the membrane level or in cells by immunofluorescence in MDA-MB-231 cells.\nSupplementary file 13046_2022_2314_MOESM3_ESM.pdf: Additional file 3: Supplementary Figure 1. Validation of the ectopic expression of CD44 and/or TrkA in COS-7 cells. The expression of all CD44 isoforms (A), CD44 variant 3 (B), CD44 variant 6 (C) and TrkA ([…]; D) was evaluated by RT–qPCR (normalized using PUM-1). No expression of CD44, CD44 variants [3 or 6] or TrkA was detected in COS-7 cells (A-D) compared with that in cells transfected with the expression plasmid carrying each protein. […] Quantification of the PLA results was performed using ImageJ software (30 randomly chosen fields per condition of three different experiments). […] CD44v3 and CD44v6 levels at the plasma membrane were assessed by flow cytometry (A-D). The plasma membrane and total TrkA and CD44v3 levels were also quantified by confocal microscopy (E-H). […] The CD44v3/NGF interaction was evaluated using microscale thermophoresis (MST). […]",
  "data": [
    {"substance": "NGF: recombinant human β-NGF (Alomone Labs, Israel)", "values": [
      {"measurement": "level of TrkA at the membrane (in words)", "value": "the membrane level of TrkA followed the same trend"}
    ]}
  ]
}
